Laboratory results taken from ChEMBL document CHEMBL1147702, “N-Benzylbenzamides: a new class of potent tyrosinase inhibitors” (Bioorg Med Chem Lett, 2006).

Target: T1, Tyrosinase (Agaricus bisporus, UniProt O42713)
T1 sequence (O42713 whole entry): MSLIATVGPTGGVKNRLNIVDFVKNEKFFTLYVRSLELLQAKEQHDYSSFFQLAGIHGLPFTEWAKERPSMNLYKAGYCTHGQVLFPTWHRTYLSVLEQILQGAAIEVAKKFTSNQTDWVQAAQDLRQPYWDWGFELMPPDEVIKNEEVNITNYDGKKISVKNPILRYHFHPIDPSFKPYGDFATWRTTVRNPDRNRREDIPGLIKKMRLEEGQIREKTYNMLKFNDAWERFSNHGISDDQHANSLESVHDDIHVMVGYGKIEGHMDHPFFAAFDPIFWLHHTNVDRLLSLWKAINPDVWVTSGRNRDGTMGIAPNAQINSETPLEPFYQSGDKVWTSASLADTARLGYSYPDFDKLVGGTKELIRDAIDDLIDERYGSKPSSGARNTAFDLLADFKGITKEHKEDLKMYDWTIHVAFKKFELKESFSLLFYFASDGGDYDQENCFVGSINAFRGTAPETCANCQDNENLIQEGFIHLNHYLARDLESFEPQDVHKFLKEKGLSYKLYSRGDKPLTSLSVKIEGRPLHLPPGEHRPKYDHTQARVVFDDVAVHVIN
Description: Inhibition of mushroom tyrosinase

| Compound | IC50 | Ki |
| --- | --- | --- |
| O=C(NCc1ccc(O)cc1O)c1ccc(O)c(O)c1 | 11 µM | – |
| O=C(NCc1cc(O)c(O)c(O)c1)c1ccc(O)c(O)c1 | 280 µM | – |
| O=C(NCc1ccccc1)c1ccc(O)cc1O | 1660 µM | – |
| O=C(NCc1ccc(O)cc1O)c1ccc(O)cc1O | 29 µM | – |
| O=C(NCc1cc(O)c(O)c(O)c1)c1cc(O)cc(O)c1 | 705 µM | – |
| O=C(NCc1ccc(O)cc1O)c1cc(O)cc(O)c1 | 2.2 µM | 1.3 µM |
| O=C(NCc1ccccc1)c1ccccc1 | 1990 µM | – |
| O=C(NCc1ccccc1)c1ccc(O)c(O)c1 | > 2000 µM | – |
| O=C(NCc1ccccc1)c1cc(O)c(O)c(O)c1 | 780 µM | – |
| O=C(NCc1cc(O)c(O)c(O)c1)c1cc(O)c(O)c(O)c1 | 555 µM | – |
| O=C(NCc1ccccc1)c1cc(O)cc(O)c1 | 700 µM | – |

The remaining lines, values ahead:

| IC50 | Ki | Compound |
| --- | --- | --- |
| 1180 µM | – | O=C(NCc1ccc(O)cc1)c1cc(O)c(O)c(O)c1 |
| > 2000 µM | – | O=C(NCc1ccc(O)cc1)c1ccc(O)c(O)c1 |
| 1820 µM | – | O=C(NCc1ccc(O)cc1)c1ccc(O)cc1O |
| 550 µM | – | O=C(NCc1cc(O)c(O)c(O)c1)c1ccc(O)cc1O |
| 710 µM | – | O=C(NCc1ccc(O)cc1)c1cc(O)cc(O)c1 |
| 17 µM | – | O=C(NCc1ccc(O)cc1O)c1cc(O)c(O)c(O)c1 |
